Test results reported in US11419852B2, “Beta-lactam compounds or salts thereof for use in long-acting prevention or treatment of a glucose metabolism disorder” (GLYCOLYSIS BIOMED CO., LTD., priority 2019, dated 2022).
Marks after values point to notes of the source that are not given here.

What was measured:
Format in all cases: in vivo
[1] = Body weight of mice recorded weekly; conditions: Ex 3: db/db mice, daily dosing 3 weeks at doses of Table 10
Protocol: (§1) Four to five weeks old db/db mice (BKS.Cg-Dock7^m+/+Lepr^db/JNarl) and m/m mice (BKS.Cg-Dock7^m+/Dock7^m+) were obtained from National Laboratory Animal Center ([…], Taiwan). […] PMI Nutrition International, Brentwood, Mo.) and water ad libitum. […] The mouse body weight (bw) and the amounts of water and food intake were recorded weekly for the entire study period.

[2] = test system: db/db mice; experiment: Oral glucose tolerance test (OGTT); design: OGTT AUC: unit not given here; conditions: for OGTT AUC: Ex 3: db/db mice, daily dosing 3 weeks at doses of Table 10
Protocol: Four to five weeks old db/db mice (BKS.Cg-Dock7^m+/+Lepr^db/JNarl) and m/m mice (BKS.Cg-Dock7^m+/Dock7^m+) were obtained from National Laboratory Animal Center ([…], Taiwan). […] PMI Nutrition International, Brentwood, Mo.) and water ad libitum. […] Blood was sampled from the tail vein, and FPG levels were measured and recorded as the basic blood glucose levels. […] The total area under the curve (AUC) in OGTT was plotted and calculated by the Area Under Coordinates Program (StatsToDo Server, Department of Obstetrics and Gynecology, Chinese University of Hong Kong).

[3] = Food and water intake of mice; conditions: for Diet intake / Water intake: Ex 3: db/db mice, daily dosing 3 weeks at doses of Table 10; for Food intake in db/db mice / Water intake in db/db mice: Ex 3, P<0.05
Protocol: as §1

[4] = test system: db/db mice; experiment: Plasma biochemical parameters (AST, ALT, BUN, Cr, HbA1c)
Protocol: Inflammatory markers such as serum aspartate aminotransferase (AST), alanine aminotransferase (ALT), blood urea nitrogen (BUN), creatinine (Cr), and hemoglobin Alc (HbAlc) were measured using a BMC-Hitachi 717 chemistry auto analyzer.

[5] = Ex 3, after the treatments had been stopped for 6 weeks
[6] = Ex 3: db/db mice, daily dosing 3 weeks at doses of Table 10, week 9

Row | Molecule | Body weight ([1]; Baseline) | Body weight ([1]; Final) | Body weight ([1]; Week 3) | Body weight ([1]; Week 6 (stopped for 3 weeks)) | Body weight ([1]; Week 9 (stopped for 6 weeks)) | OGTT AUC ([2]; Week 6 (stopped for 3 weeks)) | OGTT AUC ([2]; Week 9 (stopped for 6 weeks)) | Diet intake [3] | Water intake [3] | Level of AST [4, 5] | ALT [4, 6] | AST [4, 6] | BUN [4, 6] | Creatinine [4, 6] | HbA1c [4, 6] | Food intake in db/db mice [3] | Water intake in db/db mice [3] | Level of HbA1c [4, 5] | ALT ([4]; mouse, in vivo) | AST ([4]; mouse, in vivo) | other results
1 | C[C@@H](O)[C@H]1C(=O)N2C(C(=O)O)=C(S[C@@H]3CN[C@H](C(=O)N(C)C)C3)[C@H](C)[C@H]12 [MER, meropenem hydrate] | 28.3 ± 1^b | 36.0 ± 2^bc | 33.6 ± 1^cd | 37.1 ± 1b^c | 38.2 ± 2^c | 1599 ± 39^c | 1648 ± 61^def | 5.9 ± 1^c g/mice/day | 14.7 ± 1^e mL/mice/day | reduce | 89 ± 5^bcd U/L | 93 ± 8^ab U/L | 43 ± 2^bd mg/dL | 0.488 ± 0.03^cde mg/dL | 6.9 ± 0.3^e % |  |  |  |  |  | 
2 | CC1(C)S[C@@H]2[C@H](NC(=O)Cc3ccccc3)C(=O)N2[C@H]1C(=O)O [PEN, penicillin G] | 31.1 ± 1^b | 32.2 ± 1^b | 25.7 ± 1^b | 24.6 ± 1^a | 32.4 ± 1^b | 1088 ± 91^b | 1181 ± 69^b | 4.0 ± 0.9^a g/mice/day | 8.3 ± 4^c mL/mice/day |  |  |  |  |  | 4.2 ± 0.2^a % | significantly reduced | significantly reduced | reduce | 72 ± 20^ab U/L | 169 ± 24^de U/L | Regulation of blood glucose homeostasis (OGTT glucose vs G8) ([2]; Ex 3, medications stopped for at least 3 weeks (FIG. 6A, 6B)): still effective; BUN ([4]; mouse, in vivo): 41 ± 5^bd mg/dL; Creatinine ([4]; mouse, in vivo): 0.424 ± 0.02^ab mg/dL
3 | CO/N=C(\C(=O)N[C@@H]1C(=O)N2C(C(=O)O)=C(CSc3nc(=O)c(=O)[nH]n3C)CS[C@H]12)c1csc(N)n1 [CEFT, ceftriaxone] | 30.0 ± 1^b | 37.8 ± 2^c | 32.9 ± 1^cd | 34.1 ± 2^b | 38.8 ± 2^c | 1276 ± 69^b | 1483 ± 37^ce | 5.0 ± 1^b g/mice/day | 7.1 ± 1^b mL/mice/day | reduce | 80 ± 7^bc U/L | 104 ± 10^ac U/L | 38 ± 2^bc mg/dL | 0.428 ± 0.01^b mg/dL | 4.9 ± 0.2^c % | significantly reduced | significantly reduced | reduce |  |  | Level of ALT [4, 5]: reduce; Level of BUN [4, 5]: reduce; Level of Cr [4, 5]: reduce
4 | tienam |  |  |  |  |  |  |  |  |  |  |  |  |  |  |  |  |  |  | 104 ± 10^cd U/L | 212 ± 43^e U/L | BUN ([4]; mouse, in vivo): 47 ± 4^d mg/dL; Creatinine ([4]; mouse, in vivo): 0.473 ± 0.05^be mg/dL
